Assay results: patent US12220440B2, “Drug composition, method for treating infection, disinfecting composition, and drug adjuvant” (priority 2022, dated 2025)
Read-outs that look alike come from different tables or passages of the source.

How the values were obtained:
Type in all cases: cell-based
[1] = tested on: P. aeruginosa (colistin-susceptible); experiment: MIC, colistin-susceptible P. aeruginosa isolates, with and without otilonium bromide; conditions: Pseudomonas aeruginosa, Ob alone, read-out: Ob MIC
[2] = tested on: E. coli Bw25113; experiment: MIC, colistin-susceptible E. coli, with and without otilonium bromide; conditions: Escherichia coli, Ob alone, read-out: Ob MIC
[3] = tested on: mcr-1-bearing E. coli J53; experiment: SYTOX Green membrane permeability staining
Description: SYTOX™ Green (available from ThermoFisher Scientific) staining analysis assesses the membrane permeability of colistin-resistant E. coli before and after treatment with the colistin and otilonium bromide combination. SYTOX Green is a green-fluorescent nucleotide dye used to test membrane permeability and membrane integrity. Green fluorescence is detected by fluorescence spectrometer when bacterial cell integrity is destroyed and membrane permeability increases.

[4] = tested on: mcr-1-bearing E. coli; experiment: LIVE/DEAD cell viability assay, fluorescence microscopy; conditions: 20 μg/ml of otilonium bromide alone
Method: Fluorescence microscopy quantifies the number of live and dead cells and determines the degree of reduction in colistin concentration in the drug combination required for effective eradication of the test organism. […] However, in the presence of 20 μg/ml of otilonium bromide, 4 μg/ml of colistin eradicates >97% of the bacteria.

[5] = tested on: P. aeruginosa PAO1; experiment: Bacterial motility on semisolid agar (migration distance)
Description: It is believed that flagellar formation and flagellar motor rotation are driven by PMF. To study the effect of otilonium bromide on bacterial motility, P. aeruginosa, whose motility on a semisolid surface is dependent upon a functional flagellum, is reviewed. […] Gramicidin, an ionophore known for acting as PMF dissipater, is the positive control. […] For the experiments in FIG. 6a, P. aeruginosa is inoculated in the center of the semisolid agar containing otilonium bromide at the indicated concentrations, with gramicidin as the positive control. A set of 10 mM CaCl2 and no CaC2 plates are also prepared as indicated.
The migration distance is measured in cm and recorded after the inoculated plates ae incubated. The error bars represent the means and standard deviations (SDs). Statistical analysis is performed using unpaired two-tailed student t-test. .*, p<0.05, **, p<0.005, ***p<0.0005, ****p<0.00005.

[6] = tested on: A. baumannii (colistin-resistant); experiment: MIC, colistin-resistant A. baumannii isolates, with and without otilonium bromide; conditions: Acinetobacter baumannii
[7] = tested on: E. coli (colistin-resistant); experiment: MIC, colistin-resistant E. coli clinical isolates, with and without otilonium bromide; conditions: Escherichia coli, Ob alone, read-out: Ob MIC
[8] = tested on: S. Typhimurium PY01; experiment: MIC, colistin-susceptible S. Typhimurium, with and without otilonium bromide; conditions: Salmonella enterica, Ob alone, read-out: Ob MIC

Q: Which results are given for `CCCCCCCCOc1ccccc1C(=O)Nc1ccc(C(=O)OCC[N+](C)(CC)CC)cc1.[Br-]` [Ob, Otilonium bromide]?
A: MIC ([1]; P. aeruginosa PA01, colistin-susceptible): > 64 µg/mL; MIC ([1]; P. aeruginosa PAER 2011-3010, colistin-susceptible): > 64 µg/mL; MIC ([1]; P. aeruginosa PAER 2011-3252, colistin-susceptible): > 64 µg/mL; MIC ([1]; P. aeruginosa PAER 2012-1527, colistin-susceptible): > 64 µg/mL; MIC ([1]; P. aeruginosa PAERC 10.296, colistin-susceptible): > 64 µg/mL; MIC ([1]; P. aeruginosa PAERC 11.2309, colistin-susceptible): > 64 µg/mL; MIC ([1]; P. aeruginosa PAERC 11.236, colistin-susceptible): > 64 µg/mL; MIC ([1]; P. aeruginosa PAERC 11.603, colistin-susceptible): > 64 µg/mL; MIC ([1]; P. aeruginosa PAERC 12.1478, colistin-susceptible): > 64 µg/mL; MIC [2]: > 64 µg/mL; SYTOX Green fluorescence (membrane permeability) ([3]; each drug individually): significant increase in fluorescence; ability to enhance membrane permeability, compared with colistin ([3]; otilonium bromide by itself): significantly lower than colistin; live/dead state of cells [4]: most or all mcr-1-bearing E. coli strains were alive; migration distance on semisolid agar ([5]; 40 μM otilonium bromide supplemented with 10 mM calcium ions): significant increase in migration distance; migration distance on semisolid agar ([5]; plates containing otilonium bromide, overnight incubation): decrease in a dose-dependent manner; MIC ([6]; ATCC17978, read-out: Ob MIC): 20 µg/mL; MIC ([6]; read-out: Ob MIC, A. baumannii ABJZ-45, colistin-resistant, Ob alone): 20 µg/mL; MIC ([6]; read-out: Ob MIC, A. baumannii ABJZ-46, colistin-resistant, Ob alone): 20 µg/mL; MIC ([6]; read-out: Ob MIC, A. baumannii ABJZ-50, colistin-resistant, Ob alone): 20 µg/mL; MIC ([7]; E. coli 5, colistin-resistant): > 64 µg/mL; MIC ([7]; E. coli 12.12.0487, colistin-resistant): > 64 µg/mL; MIC ([7]; E. coli 101, colistin-resistant): > 64 µg/mL; MIC ([7]; E. coli 119, colistin-resistant): > 64 µg/mL; MIC ([7]; E. coli 812, colistin-resistant): > 64 µg/mL; MIC ([7]; E. coli 2016.2.5 1149-1, colistin-resistant): > 64 µg/mL; MIC ([7]; E. coli 34650, colistin-resistant): > 64 µg/mL; MIC ([7]; E. coli CX48, colistin-resistant): > 64 µg/mL; MIC ([7]; E. coli CX53, colistin-resistant): > 64 µg/mL; MIC ([7]; E. coli CX116, colistin-resistant): > 64 µg/mL; MIC ([7]; E. coli WZ2431, colistin-resistant): > 64 µg/mL; MIC ([7]; E. coli WZ2909, colistin-resistant): > 64 µg/mL; MIC ([7]; E. coli WZ3903, colistin-resistant): > 64 µg/mL; MIC ([7]; E. coli WZ3906, colistin-resistant): > 64 µg/mL; MIC ([7]; E. coli WZ3920, colistin-resistant): > 64 µg/mL; MIC ([7]; E. coli WZ3951, colistin-resistant): > 64 µg/mL; MIC ([7]; E. coli WZ3955, colistin-resistant): > 64 µg/mL; MIC ([7]; E. coli X2169, colistin-resistant): > 64 µg/mL; MIC [8]: > 64 µg/mL
